# Data: patent publication US6737383B1, “Herbicidal oxadiazolidines” (priority 1999, dated 2004)
# Experiments:
# [1] = system: duck salad; assay: Test B flood test duck salad; format: in vivo, Heteranthera limosa
# Method in brief: (§1)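 Plants were grown to the 2-leaf stage before treatment with test chemical, then held in a greenhouse for twelve to sixteen days. Injury was visually rated against untreated controls on a 0–10 scale, where 0 is no effect and 10 is complete control.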
# [2] = system: bamyardgrass; assay: Test B flood test barnyardgrass; format: in vivo, Echinochloa crus-galli
# Method in brief: as §1
# [3] = system: soybean; assay: Test B pre/postemergence soybean; format: in vivo, Glycine max
# Method in brief: (§2)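 Herbicidal effect was estimated by eye on a ten-point control scale after plants spent twelve to sixteen days in a greenhouse following soil or foliar treatment. Foliar sprays targeted plants at one to four leaves; all doses were formulated in a non-phytotoxic solvent with surfactant.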
# [4] = system: morningglory; assay: Test B pre/postemergence morningglory; format: in vivo, Ipomoea hederacea
# Method in brief: as §2
# [5] = system: wheat; assay: Test B pre/postemergence wheat; format: in vivo, Triticum aestivum
# Method in brief: as §2
# [6] = system: rape; assay: Test B pre/postemergence rape; format: in vivo, Brassica napus
# Method in brief: as §2
# [7] = system: pigweed; assay: Test B pre/postemergence pigweed; format: in vivo, Amaranthus retroflexus
# Method in brief: as §2
# [8] = system: velvetleaf; assay: Test B pre/postemergence velvetleaf; format: in vivo, Abutilon theophrasti
# Method in brief: as §2
# [9] = system: blackgrass; assay: Test B pre/postemergence blackgrass; format: in vivo, Alopecurus myosuroides
# Method in brief: as §2
# [10] = system: corn; assay: Test B pre/postemergence corn; format: in vivo, Zea mays
# Method in brief: as §2
# [11] = system: sugar beet; assay: Test B pre/postemergence sugar beet; format: in vivo, Beta vulgaris
# Method in brief: as §2
# [12] = system: surinam grass; assay: Test B pre/postemergence surinam grass; format: in vivo, Brachiaria decumbens
# Method in brief: as §2
# [13] = system: bedstraw; assay: Test B pre/postemergence bedstraw; format: in vivo, Galium aparine
# Method in brief: as §2
# [14] = system: rice; assay: Test B flood test rice; format: in vivo, Oryza sativa
# Method in brief: as §1
# [15] = system: giant foxtail; assay: Test B pre/postemergence giant foxtail; format: in vivo, Setaria faberii
# Method in brief: as §2
# [16] = system: smallflower flatsedge; assay: Test B flood test smallflower flatsedge; format: in vivo, Cyperus difformis
# Method in brief: as §1
# [17] = system: crabgrass; assay: Test B pre/postemergence crabgrass; format: in vivo, Digitaria sanguinalis
# Method in brief: as §2
# [18] = system: purple nutsedge; assay: Test B pre/postemergence purple nutsedge; format: in vivo, Cyperus rotundus
# Method in brief: as §2
# [19] = system: wild oat; assay: Test B pre/postemergence wild oat; format: in vivo, Avena fatua
# Method in brief: as §2
# [20] = system: cocklebur; assay: Test B pre/postemergence cocklebur; format: in vivo, Xanthium strumarium
# Method in brief: as §2
# [21] = Rate 62 g/ha, headed Pre-emergence (flood test species), scale 0 to 10 (0 no effect, 10 complete control)
# [22] = Rate 125 g/ha, Pre-emergence, flood test species, scale 0 to 10 where 0 is no effect and 10 is complete control
# [23] = Rate 250 g/ha, Pre-emergence, flood-test species, scale 0 to 10, 0 is no effect, 10 is complete control
# [24] = Rate 500 g/ha, Pre-emergence, flood test species, scale 0 to 10 (0 no effect, 10 complete control)
# [25] = Preemergence, Rate 62 g/ha, scale of 0 to 10 where 0 is no effect and 10 is complete control
# [26] = Preemergence, Rate 250 g/ha, scale of 0 to 10 where 0 is no effect and 10 is complete control
# [27] = Preemergence, Rate 500 g/ha, scale of 0 to 10 where 0 is no effect and 10 is complete control
# [28] = Rate 125 g/ha, Preemergence, scale of 0 to 10 where 0 is no effect and 10 is complete control
# [29] = Rate 500 g/ha, Postemergence, scale 0 to 10, 0 no effect, 10 complete control
# [30] = Rate 62 g/ha, Postemergence, scale of 0 to 10 where 0 is no effect and 10 is complete control
# [31] = Rate 125 g/ha, Postemergence, scale 0 to 10
smiles,measurement,setting,value
COC(=O)CCCn1c(=O)on(C(=O)N(c2ccc(F)cc2)C(C)C)c1=O [Compound 266],Ducksalad plant response rating,[1]; [21],0
same,Ducksalad plant response rating,[1]; [22],0
same,Ducksalad plant response rating,[1]; [23],0
same,Ducksalad plant response rating,[1]; [24],0
same,Barnyardgrass plant response rating,[2]; [21],0
same,Barnyardgrass plant response rating,[2]; [22],0
same,Barnyardgrass plant response rating,[2]; [23],0
same,Barnyardgrass plant response rating,[2]; [24],0
same,Soybean plant response rating,[3]; [25],0
same,Soybean plant response rating,[3]; [26],0
same,"Plant response rating, Soybean",[3]; [27],0
same,Soybean plant response rating,[3]; [28],0
same,Soybean plant response rating,[3]; [29],8
same,Morningglory plant response rating,[4]; [25],0
same,Morningglory plant response rating,[4]; [26],0
same,"Plant response rating, Morningglory",[4]; [27],1
same,Morningglory plant response rating,[4]; [28],0
same,"Plant response rating (0 to 10; 0 is no effect, 10 is complete control), Morningglory","[4]; Rate 250 g/ha, Postemergence",5
same,Morningglory plant response rating,[4]; [29],8
same,Wheat plant response rating,[5]; [25],0
same,Wheat plant response rating,[5]; [26],4
same,"Plant response rating, Wheat",[5]; [27],6
same,Wheat plant response rating,[5]; [28],0
same,Wheat plant response rating,[5]; [29],6
same,Rape plant response rating,[6]; [25],0
same,Rape plant response rating,[6]; [26],5
same,"Plant response rating, Rape",[6]; [27],5
same,Rape plant response rating,[6]; [28],0
same,"Plant response rating (0 to 10; 0 is no effect, 10 is complete control), Rape","[6]; Rate 250 g/ha, Postemergence",6
same,Rape plant response rating,[6]; [29],7
same,Redroot pigweed plant response rating,[7]; [25],0
same,Redroot pigweed plant response rating,[7]; [26],6
same,"Plant response rating, Redroot pigweed",[7]; [27],9
same,Redroot pigweed plant response rating,[7]; [28],0
same,"Plant response rating (0 to 10; 0 is no effect, 10 is complete control), Redroot pigweed","[7]; Rate 250 g/ha, Postemergence",5
same,Redroot pigweed plant response rating,[7]; [29],7
same,Velvetleaf plant response rating,[8]; [25],0
same,Velvetleaf plant response rating,[8]; [26],0
same,"Plant response rating, Velvetleaf",[8]; [27],4
same,Velvetleaf plant response rating,[8]; [28],0
same,Velvetleaf plant response rating,[8]; [29],5
same,Blackgrass plant response rating,[9]; [25],8
same,Blackgrass plant response rating,[9]; [26],9
same,"Plant response rating, Blackgrass",[9]; [27],9
same,Blackgrass plant response rating,[9]; [30],3
same,Blackgrass plant response rating,[9]; [31],5
same,Blackgrass plant response rating,[9]; [28],8
same,"Plant response rating (0 to 10; 0 is no effect, 10 is complete control), Blackgrass","[9]; Rate 250 g/ha, Postemergence",6
same,Blackgrass plant response rating,[9]; [29],8
same,Corn plant response rating,[10]; [25],0
same,Corn plant response rating,[10]; [26],0
same,"Plant response rating, Corn",[10]; [27],0
same,Corn plant response rating,[10]; [30],0
same,Corn plant response rating,[10]; [31],0
same,Corn plant response rating,[10]; [28],0
same,"Plant response rating (0 to 10; 0 is no effect, 10 is complete control), Corn","[10]; Rate 250 g/ha, Postemergence",0
same,Corn plant response rating,[10]; [29],0
same,Sugarbeets plant response rating,[11]; [25],0
same,Sugarbeets plant response rating,[11]; [26],7
same,"Plant response rating, Sugarbeets",[11]; [27],7
same,Sugarbeets plant response rating,[11]; [28],5
same,Sugarbeets plant response rating,[11]; [29],7
same,B. signalgrass plant response rating,[12]; [25],0
same,B. signalgrass plant response rating,[12]; [26],0
same,"Plant response rating, B. signalgrass",[12]; [27],7
same,B. signalgrass plant response rating,[12]; [30],0
same,B. signalgrass plant response rating,"[12]; Rate 125 g/ha, Postemergence, scale 0 (no effect) to 10 (complete control)",0
same,B. signalgrass plant response rating,[12]; [28],0
same,"Plant response rating (0 to 10; 0 is no effect, 10 is complete control), B. signalgrass","[12]; Rate 250 g/ha, Postemergence",0
same,B. signalgrass plant response rating,[12]; [29],2
same,Bedstraw plant response rating,[13]; [25],0
same,Bedstraw plant response rating,[13]; [26],8
same,"Plant response rating, Bedstraw",[13]; [27],9
same,Bedstraw plant response rating,[13]; [30],0
same,Bedstraw plant response rating,[13]; [31],0
same,Bedstraw plant response rating,[13]; [28],3
same,"Plant response rating (0 to 10; 0 is no effect, 10 is complete control), Bedstraw","[13]; Rate 250 g/ha, Postemergence",5
same,Bedstraw plant response rating,[13]; [29],6
same,Rice plant response rating,[14]; [21],0
same,Rice plant response rating,[14]; [22],0
same,Rice plant response rating,[14]; [23],0
same,Rice plant response rating,[14]; [24],0
same,Giant foxtail plant response rating,[15]; [25],0
same,Giant foxtail plant response rating,[15]; [26],6
same,"Plant response rating, Giant foxtail",[15]; [27],8
same,Giant foxtail plant response rating,[15]; [28],4
same,"Plant response rating (0 to 10; 0 is no effect, 10 is complete control), Giant foxtail","[15]; Rate 250 g/ha, Postemergence",5
same,Giant foxtail plant response rating,[15]; [29],7
same,S. Flatsedge plant response rating,[16]; [21],0
same,S. Flatsedge plant response rating,[16]; [22],0
same,S. Flatsedge plant response rating,[16]; [23],0
same,S. Flatsedge plant response rating,[16]; [24],0
same,Crabgrass plant response rating,[17]; [25],0
same,Crabgrass plant response rating,[17]; [26],5
same,"Plant response rating, Crabgrass",[17]; [27],6
same,Crabgrass plant response rating,[17]; [28],1
same,"Plant response rating (0 to 10; 0 is no effect, 10 is complete control), Crabgrass","[17]; Rate 250 g/ha, Postemergence",3
same,Crabgrass plant response rating,[17]; [29],5
same,Nutsedge plant response rating,[18]; [26],0
same,"Plant response rating, Nutsedge",[18]; [27],0
same,Nutsedge plant response rating,[18]; [28],0
same,"Plant response rating (0 to 10; 0 is no effect, 10 is complete control), Nutsedge","[18]; Rate 250 g/ha, Postemergence",0
same,Nutsedge plant response rating,[18]; [29],3
same,Wild oats plant response rating,[19]; [25],0
same,Wild oats plant response rating,[19]; [26],5
same,"Plant response rating, Wild oats",[19]; [27],7
same,Wild oats plant response rating,[19]; [28],2
same,Wild oats plant response rating,[19]; [29],2
same,Cocklebur plant response rating,[20]; [25],0
same,Cocklebur plant response rating,[20]; [26],0
same,"Plant response rating, Cocklebur",[20]; [27],0
same,Cocklebur plant response rating,[20]; [30],0
same,Cocklebur plant response rating,[20]; [31],0
same,Cocklebur plant response rating,[20]; [28],0
same,"Plant response rating (0 to 10; 0 is no effect, 10 is complete control), Cocklebur","[20]; Rate 250 g/ha, Postemergence",2
same,Cocklebur plant response rating,[20]; [29],2
